Experimental data as given in the kinase profiling compilation of Christmann-Franck et al. (2016).

Key:
Assay in all cases: radiometric filter-binding kinase assay, Kinaseprofiler
[1] = system: IRAK4 (human), Q9NWZ3 [A81V]; settings: ATP 200 µM
[2] = system: BRSK2 (human), Q8IWQ3 [S251I]; settings: ATP 70 µM
[3] = system: AXL (human), P30530 [Q764R]; settings: ATP 90 µM
[4] = system: SGK1 (human), O00141 [S422D]; settings: ATP 90 µM
[5] = system: RPS6KB1 (human), P23443 [T412E]; settings: ATP 15 µM
Chain of RPS6KB1 (human), P23443 [T412E] (P23443 whole entry T412E, looked up): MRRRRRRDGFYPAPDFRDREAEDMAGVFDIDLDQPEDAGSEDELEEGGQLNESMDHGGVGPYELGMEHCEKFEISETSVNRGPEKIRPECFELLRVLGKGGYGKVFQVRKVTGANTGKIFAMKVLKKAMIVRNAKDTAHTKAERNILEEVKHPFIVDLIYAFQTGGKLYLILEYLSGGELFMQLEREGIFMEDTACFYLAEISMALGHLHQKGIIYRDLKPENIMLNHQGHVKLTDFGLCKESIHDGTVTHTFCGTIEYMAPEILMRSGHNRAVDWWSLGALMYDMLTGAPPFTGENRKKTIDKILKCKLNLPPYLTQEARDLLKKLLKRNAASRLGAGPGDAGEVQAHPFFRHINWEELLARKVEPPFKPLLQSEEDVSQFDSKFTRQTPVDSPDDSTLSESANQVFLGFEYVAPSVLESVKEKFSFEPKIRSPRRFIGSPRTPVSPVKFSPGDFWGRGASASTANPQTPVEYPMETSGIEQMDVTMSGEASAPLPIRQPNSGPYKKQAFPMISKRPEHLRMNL

MTOR FKBP1A (human) = MTOR FKBP1A (human) (UniProt P42345+P62942); settings: compound 10.0 µM; ATP 45 µM
Chain of MTOR FKBP1A (human) (P62942 whole entry, looked up, other chains not shown): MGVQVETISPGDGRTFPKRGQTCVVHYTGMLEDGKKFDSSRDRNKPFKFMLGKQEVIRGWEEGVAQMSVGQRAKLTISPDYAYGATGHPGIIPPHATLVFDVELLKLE

NLK (human) = NLK (human) (UniProt Q9UBE8); settings: compound 1.0 µM; ATP 200 µM
CSNK1G1 (human) = CSNK1G1 (human) (UniProt Q9HCP0); settings: compound 10.0 µM; ATP 15 µM
RPS6KA4 KD1 KD2 (human) = RPS6KA4 KD1 KD2 (human) (UniProt O75676); settings: ATP 45 µM
Chain of RPS6KA4 KD1 KD2 (human) (O75676 whole entry, looked up): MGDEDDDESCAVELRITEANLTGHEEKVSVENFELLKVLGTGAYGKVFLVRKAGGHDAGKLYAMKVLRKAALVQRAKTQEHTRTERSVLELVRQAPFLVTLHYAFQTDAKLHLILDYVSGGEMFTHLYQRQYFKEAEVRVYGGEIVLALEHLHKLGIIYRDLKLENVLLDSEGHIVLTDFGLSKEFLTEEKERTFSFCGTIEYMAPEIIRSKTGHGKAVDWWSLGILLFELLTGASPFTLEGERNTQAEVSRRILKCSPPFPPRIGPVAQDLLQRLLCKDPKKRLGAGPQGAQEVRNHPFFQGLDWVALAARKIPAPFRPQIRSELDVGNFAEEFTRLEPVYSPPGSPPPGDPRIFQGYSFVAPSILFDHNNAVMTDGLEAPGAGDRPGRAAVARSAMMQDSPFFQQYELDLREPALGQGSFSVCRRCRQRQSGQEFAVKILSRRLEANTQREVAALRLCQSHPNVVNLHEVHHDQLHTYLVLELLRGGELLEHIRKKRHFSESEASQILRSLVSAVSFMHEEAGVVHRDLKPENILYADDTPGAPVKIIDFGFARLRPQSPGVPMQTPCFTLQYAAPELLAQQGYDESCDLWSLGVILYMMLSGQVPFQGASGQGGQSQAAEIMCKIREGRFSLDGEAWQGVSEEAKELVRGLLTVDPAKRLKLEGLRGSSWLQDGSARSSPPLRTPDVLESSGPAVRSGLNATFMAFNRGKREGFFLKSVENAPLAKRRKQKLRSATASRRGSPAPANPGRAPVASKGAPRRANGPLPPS

CSNK1D (rat) = settings: compound 10.0 µM; accession and sequence are those of the human protein
FLT3 (human) = FLT3 (human) (UniProt P36888); settings: ATP 200 µM
STK17A (human) = STK17A (human) (UniProt Q9UEE5); settings: compound 10.0 µM; ATP 10 µM
TXK (human) = TXK (human) (UniProt P42681); settings: compound 1.0 µM; ATP 200 µM
MELK (human) = MELK (human) (UniProt Q14680); settings: compound 1.0 µM; ATP 45 µM
CHEK1 (human) = CHEK1 (human) (UniProt O14757); settings: compound 10.0 µM; ATP 90 µM
[6] = biological target: CSNK2A1 CSNK2B CSNK2A2 (human) (UniProt P19784+P68400+P67870); settings: compound 10.0 µM; ATP 15 µM
EPHB1 (human) = EPHB1 (human) (UniProt P54762); settings: compound 10.0 µM; ATP 200 µM
NUAK1 (human) = NUAK1 (human) (UniProt O60285); settings: ATP 45 µM
PLK3 (human) = PLK3 (human) (UniProt Q9H4B4); settings: compound 10.0 µM; ATP 70 µM
ULK3 (human) = ULK3 (human) (UniProt Q6PHR2); settings: compound 10.0 µM; ATP 10 µM
PTK2B (human) = PTK2B (human) (UniProt Q14289); settings: compound 10.0 µM; ATP 90 µM
FER (human) = FER (human) (UniProt P16591); settings: compound 10.0 µM; ATP 70 µM
SRPK3 (human) = SRPK3 (human) (UniProt Q9UPE1); settings: compound 10.0 µM; ATP 15 µM
MAP2K1 (human) = MAP2K1 (human) (UniProt Q02750); settings: compound 1.0 µM; ATP 10 µM
WNK2 (human) = WNK2 (human) (UniProt Q9Y3S1); settings: compound 10.0 µM; ATP 200 µM
PASK (human) = PASK (human) (UniProt Q96RG2); settings: compound 10.0 µM; ATP 15 µM
FYN (human) = FYN (human) (UniProt P06241); settings: compound 1.0 µM; ATP 70 µM
SRC (human) = SRC (human) (UniProt P12931); settings: compound 10.0 µM; ATP 200 µM
NTRK2 (human) = NTRK2 (human) (UniProt Q16620); settings: ATP 90 µM
Chain of NTRK2 (human) (Q16620 whole entry, looked up): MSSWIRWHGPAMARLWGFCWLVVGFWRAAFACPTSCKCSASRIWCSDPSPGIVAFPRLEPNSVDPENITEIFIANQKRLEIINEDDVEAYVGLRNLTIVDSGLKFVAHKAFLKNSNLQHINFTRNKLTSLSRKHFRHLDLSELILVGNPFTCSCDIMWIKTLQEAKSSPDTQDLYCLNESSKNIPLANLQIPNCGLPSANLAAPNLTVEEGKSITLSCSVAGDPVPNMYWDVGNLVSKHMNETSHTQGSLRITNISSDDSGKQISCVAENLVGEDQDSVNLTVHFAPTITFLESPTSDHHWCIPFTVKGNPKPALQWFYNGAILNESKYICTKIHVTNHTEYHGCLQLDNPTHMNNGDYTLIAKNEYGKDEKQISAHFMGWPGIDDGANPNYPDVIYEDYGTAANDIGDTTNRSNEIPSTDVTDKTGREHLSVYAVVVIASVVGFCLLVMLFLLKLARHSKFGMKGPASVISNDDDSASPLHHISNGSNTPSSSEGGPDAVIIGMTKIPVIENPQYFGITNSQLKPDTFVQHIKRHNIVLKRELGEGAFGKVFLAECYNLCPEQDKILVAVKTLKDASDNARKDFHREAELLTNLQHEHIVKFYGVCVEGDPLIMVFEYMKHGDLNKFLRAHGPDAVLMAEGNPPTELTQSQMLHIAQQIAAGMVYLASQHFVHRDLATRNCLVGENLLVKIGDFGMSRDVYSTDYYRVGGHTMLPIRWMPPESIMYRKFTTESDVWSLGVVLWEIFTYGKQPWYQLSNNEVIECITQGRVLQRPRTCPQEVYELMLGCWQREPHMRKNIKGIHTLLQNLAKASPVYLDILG

PAK7 (human) = PAK7 (human) (UniProt Q9P286); settings: compound 10.0 µM; ATP 15 µM
PRKACA (human) = PRKACA (human) (UniProt P17612); settings: compound 1.0 µM; ATP 10 µM
TLK2 (human) = TLK2 (human) (UniProt Q86UE8); settings: ATP 10 µM
MAPK3 (human) = MAPK3 (human) (UniProt P27361); settings: compound 1.0 µM; ATP 70 µM
SRPK1 (human) = SRPK1 (human) (UniProt Q96SB4); settings: compound 10.0 µM; ATP 10 µM
IRAK1 (human) = IRAK1 (human) (UniProt P51617); settings: compound 10.0 µM; ATP 45 µM
FGR (human) = FGR (human) (UniProt P09769); settings: compound 1.0 µM; ATP 45 µM
STK24 (human) = STK24 (human) (UniProt Q9Y6E0); settings: compound 1.0 µM; ATP 15 µM
EPHA8 (human) = EPHA8 (human) (UniProt P29322); settings: compound 1.0 µM; ATP 200 µM
STK4 (human) = STK4 (human) (UniProt Q13043); settings: compound 1.0 µM; ATP 90 µM
MAPKAPK3 (human) = MAPKAPK3 (human) (UniProt Q16644); settings: compound 10.0 µM; ATP 90 µM
INSR (human) = INSR (human) (UniProt P06213); settings: compound 1.0 µM; ATP 200 µM
PRKG1 (human) = PRKG1 (human) (UniProt Q13976); settings: compound 1.0 µM; ATP 90 µM
Chain of PRKG1 (human) (Q13976 whole entry, looked up): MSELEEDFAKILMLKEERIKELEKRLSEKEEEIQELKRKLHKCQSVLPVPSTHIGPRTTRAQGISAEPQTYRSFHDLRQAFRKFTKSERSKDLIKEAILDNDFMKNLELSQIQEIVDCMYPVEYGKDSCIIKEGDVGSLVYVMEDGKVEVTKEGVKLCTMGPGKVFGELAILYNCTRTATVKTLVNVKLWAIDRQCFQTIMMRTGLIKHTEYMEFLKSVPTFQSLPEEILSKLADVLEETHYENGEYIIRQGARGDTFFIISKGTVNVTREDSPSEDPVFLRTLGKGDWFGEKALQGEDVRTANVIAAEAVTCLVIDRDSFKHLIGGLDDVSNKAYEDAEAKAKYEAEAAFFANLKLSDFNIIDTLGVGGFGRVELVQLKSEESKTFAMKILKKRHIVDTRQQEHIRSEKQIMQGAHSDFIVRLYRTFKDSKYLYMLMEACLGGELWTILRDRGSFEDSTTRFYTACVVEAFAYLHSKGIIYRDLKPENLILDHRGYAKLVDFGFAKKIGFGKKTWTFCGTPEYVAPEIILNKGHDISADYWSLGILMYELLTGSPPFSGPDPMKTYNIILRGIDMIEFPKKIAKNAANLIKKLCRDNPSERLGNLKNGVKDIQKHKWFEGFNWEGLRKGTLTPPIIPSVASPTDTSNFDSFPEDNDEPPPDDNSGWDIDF

HIPK3 (human) = HIPK3 (human) (UniProt Q9H422); settings: ATP 15 µM
MARK2 (human) = MARK2 (human) (UniProt Q7KZI7); settings: compound 1.0 µM; ATP 15 µM
RPS6KA3 KD1 KD2 (human) = RPS6KA3 KD1 KD2 (human) (UniProt P51812); settings: compound 1.0 µM; ATP 10 µM
CAMK2G (human) = CAMK2G (human) (UniProt Q13555); settings: compound 10.0 µM; ATP 10 µM
TAOK1 (human) = TAOK1 (human) (UniProt Q7L7X3); settings: compound 1.0 µM; ATP 10 µM
TNK2 (human) = TNK2 (human) (UniProt Q07912); settings: compound 1.0 µM; ATP 70 µM
RPS6KA5 KD1 KD2 (human) = RPS6KA5 KD1 KD2 (human) (UniProt O75582); settings: compound 1.0 µM; ATP 90 µM
EPHA1 (human) = EPHA1 (human) (UniProt P21709); settings: compound 1.0 µM; ATP 45 µM
KDR (human) = KDR (human) (UniProt P35968); settings: compound 10.0 µM; ATP 90 µM
CDC42BPA (human) = CDC42BPA (human) (UniProt Q5VT25); settings: compound 10.0 µM; ATP 45 µM
EPHA3 (human) = EPHA3 (human) (UniProt P29320); settings: compound 1.0 µM; ATP 120 µM
PAK4 (human) = PAK4 (human) (UniProt O96013); settings: compound 10.0 µM; ATP 10 µM
NTRK1 (human) = NTRK1 (human) (UniProt P04629); settings: compound 1.0 µM; ATP 120 µM
[7] = biological target: JAK2 JH1 catalytic (human) (UniProt O60674); settings: compound 1.0 µM; ATP 45 µM
AURKB (human) = AURKB (human) (UniProt Q96GD4); settings: compound 10.0 µM; ATP 10 µM
PIM1 (human) = PIM1 (human) (UniProt P11309); settings: compound 10.0 µM; ATP 90 µM

Chain of IRAK4 (human), Q9NWZ3 [A81V] (Q9NWZ3 whole entry, looked up, stated change not applied): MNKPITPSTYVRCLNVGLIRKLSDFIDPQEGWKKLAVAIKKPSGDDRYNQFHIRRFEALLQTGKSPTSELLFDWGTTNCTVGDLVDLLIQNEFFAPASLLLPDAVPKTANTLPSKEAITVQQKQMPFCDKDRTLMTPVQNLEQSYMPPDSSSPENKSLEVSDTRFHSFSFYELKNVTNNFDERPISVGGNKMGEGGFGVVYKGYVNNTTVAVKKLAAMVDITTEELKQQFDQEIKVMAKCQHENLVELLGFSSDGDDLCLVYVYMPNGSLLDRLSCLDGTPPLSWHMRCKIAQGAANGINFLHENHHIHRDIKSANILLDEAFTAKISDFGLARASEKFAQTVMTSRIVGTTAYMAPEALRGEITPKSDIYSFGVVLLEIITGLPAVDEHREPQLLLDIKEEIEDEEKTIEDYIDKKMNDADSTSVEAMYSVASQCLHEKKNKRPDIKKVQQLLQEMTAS
Chain of BRSK2 (human), Q8IWQ3 [S251I] (Q8IWQ3 whole entry, looked up, stated change not applied): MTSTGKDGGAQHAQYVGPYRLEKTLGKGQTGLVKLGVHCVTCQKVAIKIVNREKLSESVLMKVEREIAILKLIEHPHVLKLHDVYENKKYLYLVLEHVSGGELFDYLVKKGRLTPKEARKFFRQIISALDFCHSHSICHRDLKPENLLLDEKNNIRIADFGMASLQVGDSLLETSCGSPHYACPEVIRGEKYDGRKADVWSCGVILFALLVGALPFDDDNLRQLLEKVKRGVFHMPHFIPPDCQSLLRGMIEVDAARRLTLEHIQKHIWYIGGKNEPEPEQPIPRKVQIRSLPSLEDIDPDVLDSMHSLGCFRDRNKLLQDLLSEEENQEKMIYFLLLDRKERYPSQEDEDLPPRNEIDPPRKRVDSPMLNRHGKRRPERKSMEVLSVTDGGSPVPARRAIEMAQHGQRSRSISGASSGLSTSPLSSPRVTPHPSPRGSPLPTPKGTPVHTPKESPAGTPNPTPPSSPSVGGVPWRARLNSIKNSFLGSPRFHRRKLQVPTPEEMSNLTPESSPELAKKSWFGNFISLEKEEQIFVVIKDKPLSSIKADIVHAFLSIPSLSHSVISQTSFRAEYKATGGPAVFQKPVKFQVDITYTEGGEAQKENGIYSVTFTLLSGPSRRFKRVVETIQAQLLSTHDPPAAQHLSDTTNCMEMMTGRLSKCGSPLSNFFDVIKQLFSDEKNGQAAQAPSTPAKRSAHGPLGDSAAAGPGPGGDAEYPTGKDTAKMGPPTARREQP
Chain of AXL (human), P30530 [Q764R] (P30530 whole entry Q764R, looked up): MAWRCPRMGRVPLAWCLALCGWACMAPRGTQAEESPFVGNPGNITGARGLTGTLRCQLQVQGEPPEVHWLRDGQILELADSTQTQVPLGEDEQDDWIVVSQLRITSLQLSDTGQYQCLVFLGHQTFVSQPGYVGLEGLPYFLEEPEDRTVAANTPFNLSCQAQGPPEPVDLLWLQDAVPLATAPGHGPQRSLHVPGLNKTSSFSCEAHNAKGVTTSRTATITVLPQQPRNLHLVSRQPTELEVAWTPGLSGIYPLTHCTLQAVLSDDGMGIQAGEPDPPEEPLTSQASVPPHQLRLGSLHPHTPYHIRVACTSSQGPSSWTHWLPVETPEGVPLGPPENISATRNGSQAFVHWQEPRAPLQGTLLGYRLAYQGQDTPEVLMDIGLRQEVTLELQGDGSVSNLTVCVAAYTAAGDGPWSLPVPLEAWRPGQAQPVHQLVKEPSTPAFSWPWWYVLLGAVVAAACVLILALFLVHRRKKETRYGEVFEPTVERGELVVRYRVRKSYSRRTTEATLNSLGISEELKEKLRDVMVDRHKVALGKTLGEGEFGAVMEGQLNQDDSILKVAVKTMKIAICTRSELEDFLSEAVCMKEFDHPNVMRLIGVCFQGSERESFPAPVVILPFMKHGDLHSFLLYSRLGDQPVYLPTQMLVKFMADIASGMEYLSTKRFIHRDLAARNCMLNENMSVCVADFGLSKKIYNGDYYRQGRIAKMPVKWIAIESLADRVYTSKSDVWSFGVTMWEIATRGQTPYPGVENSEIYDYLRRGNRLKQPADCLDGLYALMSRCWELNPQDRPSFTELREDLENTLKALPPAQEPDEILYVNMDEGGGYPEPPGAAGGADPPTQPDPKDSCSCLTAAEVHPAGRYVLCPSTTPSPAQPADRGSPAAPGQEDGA

In the case of `COC(=O)[C@]1(O)C[C@@H]2O[C@@]1(C)n1c3ccccc3c3c4c(c5c6ccccc6n2c5c31)C(=O)NC4`, the residual activity ([1]; compound 1.0 µM) is reported as -2%, the residual activity ([1]; compound 10.0 µM) is reported as 0% and the residual activity ([2]; compound 10.0 µM) is reported as 0%. The residual activity ([3]; compound 10.0 µM) was -3%.

Work on `O=C1c2ccccc2-c2n[nH]c3cccc1c23` yielded a residual activity ([1]; compound 1.0 µM) of 36%, a residual activity ([1]; compound 10.0 µM) of 11% and a residual activity ([2]; compound 1.0 µM) of 64%. For the same compound, the residual activity ([2]; compound 10.0 µM) was 9%, the residual activity ([4]; compound 1.0 µM) was 60% and the residual activity ([4]; compound 10.0 µM) was 24%. For the same compound, the residual activity ([5]; compound 1.0 µM) was 55%, the residual activity ([5]; compound 10.0 µM) was 14% and the residual activity ([3]; compound 1.0 µM) was 50%. It also gave a residual activity ([3]; compound 10.0 µM) of 17%.

Work on `CN[C@@H]1C[C@H]2O[C@@](C)([C@@H]1OC)n1c3ccccc3c3c4c(c5c6ccccc6n2c5c31)C(=O)NC4` yielded a residual activity (MTOR FKBP1A (human)) of 78%, a residual activity (NLK (human)) of 26% and a residual activity (CSNK1G1 (human)) of 54%. It also gave a residual activity (RPS6KA4 KD1 KD2 (human); compound 1.0 µM) of 0%, a residual activity (RPS6KA4 KD1 KD2 (human); compound 10.0 µM) of 0% and a residual activity (CSNK1D (rat)) of 52%. For the same compound, the residual activity (FLT3 (human); compound 1.0 µM) was 0%, the residual activity (FLT3 (human); compound 10.0 µM) was 0% and the residual activity (STK17A (human)) was 0%. For the same compound, the residual activity (TXK (human)) was 24%, the residual activity ([1]; compound 10.0 µM) was 0% and the residual activity (MELK (human)) was 0%. It also gave a residual activity (CHEK1 (human)) of 0%, a residual activity [6] of 95% and a residual activity (EPHB1 (human)) of 0%. It also gave a residual activity (NUAK1 (human); compound 1.0 µM) of 0%, a residual activity (NUAK1 (human); compound 10.0 µM) of 0% and a residual activity (PLK3 (human)) of 43%. The residual activity (ULK3 (human)) was 0%, the residual activity (PTK2B (human)) was 0% and the residual activity (FER (human)) was 0%. It also gave a residual activity ([2]; compound 10.0 µM) of 0%, a residual activity (SRPK3 (human)) of 51% and a residual activity (MAP2K1 (human)) of 0%. It also gave a residual activity (WNK2 (human)) of 37%, a residual activity (PASK (human)) of 0% and a residual activity (FYN (human)) of 0%. For the same compound, the residual activity (SRC (human)) was 0%, the residual activity (NTRK2 (human); compound 1.0 µM) was 0% and the residual activity (NTRK2 (human); compound 10.0 µM) was 0%. For the same compound, the residual activity (PAK7 (human)) was 0%, the residual activity (PRKACA (human)) was 0% and the residual activity (TLK2 (human); compound 1.0 µM) was 0%. It also gave a residual activity (TLK2 (human); compound 10.0 µM) of 0%, a residual activity (MAPK3 (human)) of 62% and a residual activity (SRPK1 (human)) of -4%. For the same compound, the residual activity (IRAK1 (human)) was 0%, the residual activity (FGR (human)) was 0% and the residual activity (STK24 (human)) was 0%. It also gave a residual activity (EPHA8 (human)) of 26%, a residual activity (STK4 (human)) of 0% and a residual activity (MAPKAPK3 (human)) of 43%. For the same compound, the residual activity (INSR (human)) was 26%, the residual activity (PRKG1 (human)) was 0% and the residual activity (HIPK3 (human); compound 1.0 µM) was 82%. For the same compound, the residual activity (HIPK3 (human); compound 10.0 µM) was 34%.

With `O=C(Nc1cccc(Nc2nccc(Nc3cccc(C(F)(F)F)c3)n2)c1)C1CC1` the residual activity (MARK2 (human)) was 100%, the residual activity (RPS6KA3 KD1 KD2 (human)) was 17% and the residual activity (CAMK2G (human)) was 21%. The residual activity (TAOK1 (human)) was 100%, the residual activity (TNK2 (human)) was 24% and the residual activity (RPS6KA5 KD1 KD2 (human)) was 100%. It also gave a residual activity (EPHA1 (human)) of 24%, a residual activity (KDR (human)) of 24% and a residual activity (CDC42BPA (human)) of 147%. It also gave a residual activity (EPHA3 (human)) of 100%, a residual activity (PAK4 (human)) of 28% and a residual activity (NTRK1 (human)) of 21%. For the same compound, the residual activity [7] was 17%, the residual activity (AURKB (human)) was -1% and the residual activity (PIM1 (human)) was 28%.
